This note sets out measurements from patent US20150105377A1, “Methods and Compositions for RAF Kinase Mediated Diseases” (ARIAD Pharmaceuticals, Inc., priority 2012, published 2015).

The target in one test is T1, C-RAF (Homo sapiens, UniProt P04049).
T1 construct: purchased Reaction Biology Corporation (Malvern, Pa.), contract assay service
In words: Kinase inhibition assay (Reaction Biology Corporation). Format: biochemical. The settings on record: 10 μM ATP, 10-point curve.

In test [1] the test system is A375 BRAF V600E melanoma cell line. Nature of the test: Cell growth assay. Format: cell-based. As to conditions: Homo sapiens, A-375, read-out: Ponatinib GI50 (nM), 72 hours. The protocol: (§1) Cell growth was assessed using the Cell Titer 96 Aqueous One Solution Cell Proliferation Assay (Promega) and absorbance was measured using a Wallac Victor microplate reader (PerkinElmer). To differentiate between a cytostatic and cytotoxic drug effect, the concentration that causes 50% growth inhibition (GI50) was determined by correcting for the cell count at time zero (time of treatment) and plotting data as percent growth relative to vehicle-treated cells using XLfit version 5.2.0 for Microsoft Excel. Data are shown as mean from 3 independent experiments performed in triplicate.

In test [2] the test system is HT-29 BRAF V600E colorectal cancer cell line. Nature of the test: Cell growth assay. The test is classed as cell-based. The settings on record: Homo sapiens, read-out: Ponatinib GI50 (nM), HT-29, Colorectal, 72 hours. The protocol: as §1
The subject of test [3] is SH-4 BRAF V600E melanoma cell line. In words: Cell growth assay. As to conditions: Homo sapiens, read-out: Ponatinib GI50 (nM), SH-4, Melanoma, 72 hours. Format: cell-based. On the procedure: as §1
In test [4] the test system is SK-MEL-24 BRAF V600E melanoma cell line. Nature of the test: Cell growth assay. The test is classed as cell-based. As to conditions: Homo sapiens, read-out: Ponatinib GI50 (nM), SK-MEL-24, Melanoma, 72 hours. The protocol:
as §1

Test [5] deals with C32 BRAF V600E het melanoma cell line. In words: Cell growth assay (automated cell line screening, Ricerca Biosciences). Format: cell-based. The settings on record: Homo sapiens, read-out: Ponatinib GI50 (nM), tested by Ricerca Biosciences. On the procedure: as §1
(§2) Cell growth assays were also performed as part of an automated cell line screening assay (Ricerca Biosciences, LLC, Bothell, Wash., USA). Experimental procedures are similar to those described above.

Test [6] deals with CHL-1 BRAF wt melanoma cell line. The test is described as above. As to conditions: Homo sapiens, read-out: Ponatinib GI50 (nM), CHL-1, Melanoma, tested by Ricerca Biosciences. Format: cell-based. On the procedure:
as §1, §2

In test [7] the test system is MEK or ERK1/2 phosphorylation in A375 BRAF V600E mutant melanoma cancer cells. In words: Immunoblot analysis of BRAF signaling. Format: cell-based. The settings on record: FIG. 1B. On the procedure: (§3) Cells were lysed in SDS lysis buffer (0.06 M Tris-HCL. 1% SDS and 10% glycerol) and protein concentration was determined using a BCA Protein assay (Thermo Scientific). Cellular lysates ([…]) were resolved by electrophoresis and transferred to nitrocellulose membranes using NuPage Novex reagents (Invitrogen). Membranes were immunoblotted with the indicated antibodies (Cell Signaling Technology) and then exposed to Supersignal ELISA femto maximum sensitivity substrate (Thermo Scientific) to generate a chemiluminescent signal.
(In western blotting, separated proteins are transferred to a membrane and probed.)

In test [8] the test system is MEK or ERK1/2 phosphorylation in HT-29 BRAF V600E mutant colorectal cancer cells. In words: Immunoblot analysis of BRAF signaling. Format: cell-based. The settings on record: HT-29 cells, FIG. 4B. On the procedure:
as §3

Test [9] has as its system MEK or ERK1/2 phosphorylation in SH-4 BRAF V600E mutant melanoma cancer cells. In words: Immunoblot analysis of BRAF signaling. As to conditions: SH-4 cells, FIG. 2B. The test is classed as cell-based. The protocol: as §3

The structures appear in SMILES notation.

T1 sequence (P04049 whole entry): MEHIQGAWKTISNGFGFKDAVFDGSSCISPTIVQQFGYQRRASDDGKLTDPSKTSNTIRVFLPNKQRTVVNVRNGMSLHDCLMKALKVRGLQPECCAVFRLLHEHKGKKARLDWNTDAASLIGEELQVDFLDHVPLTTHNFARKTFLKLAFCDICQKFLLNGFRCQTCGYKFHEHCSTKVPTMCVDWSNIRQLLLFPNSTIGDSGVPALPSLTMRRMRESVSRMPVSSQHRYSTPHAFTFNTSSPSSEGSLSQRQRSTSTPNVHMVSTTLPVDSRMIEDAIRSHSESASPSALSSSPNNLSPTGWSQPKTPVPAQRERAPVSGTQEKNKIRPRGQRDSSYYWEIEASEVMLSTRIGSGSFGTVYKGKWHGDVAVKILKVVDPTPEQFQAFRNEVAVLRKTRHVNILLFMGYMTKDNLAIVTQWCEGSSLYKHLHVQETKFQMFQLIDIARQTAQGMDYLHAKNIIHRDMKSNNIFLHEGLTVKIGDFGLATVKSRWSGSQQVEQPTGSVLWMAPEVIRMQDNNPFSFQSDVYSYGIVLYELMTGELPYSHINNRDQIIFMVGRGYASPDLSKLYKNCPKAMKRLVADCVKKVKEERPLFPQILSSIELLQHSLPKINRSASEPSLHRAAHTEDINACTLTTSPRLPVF

Take `Cc1ccc(C(=O)Nc2cc(-n3ccnc3)cc(C(F)(F)F)c2)cc1C#Cc1cnc2c(NC(N)=O)cccn12`: at C-RAF (Table 2), half-maximal inhibition (IC50) was put at 12.7 nM.

For the compound `CN1CCN(Cc2ccc(NC(=O)c3ccc(F)c(C#Cc4cnc5ccccn45)c3)cc2C(F)(F)F)CC1`, the 50% inhibitory concentration (IC50) (in general, the concentration that inhibits the measured activity by half) on C-RAF (Table 2) stood at 51.7 nM.

The compound `CN1CCN(Cc2ccc(NC(=O)c3cccc(C#Cc4cnc5ccccn45)c3)cc2C(F)(F)F)CC1` displayed an IC50 on C-RAF (Table 2) of 26.7 nM.

`CC(C)N1CCN(Cc2ccc(NC(=O)c3cncc(C#Cc4cnc5cnccn45)c3)cc2C(F)(F)F)CC1` showed a half-inhibitory concentration (IC50) at C-RAF (Table 2) of 14.4 nM.

Compound `Cc1ccc(C(=O)Nc2cc(-n3cnc(C#N)c3)cc(C(F)(F)F)c2)cc1C#Cc1cnc2ccccn12` came in with a half-inhibitory concentration (IC50) on C-RAF (Table 2) of 998 nM.

With `Cc1ccc(C(=O)Nc2ccc(CN3CCOCC3)c(C(F)(F)F)c2)cc1C#Cc1cnc2cnccn12`, at C-RAF (Table 2), the IC50 was 5.43 nM.

As to `CC(=O)Nc1cccn2c(C#Cc3cc(C(=O)Nc4cccc(C(F)(F)F)c4)ccc3C)cnc12`, half-maximal inhibition on C-RAF (Table 2) (IC50) required 7.3 nM.

With `Cc1ccc(C(=O)Nc2cc(C(F)(F)F)ccc2NCCN2CCCC2)cc1C#Cc1cnc2ccccn12`, the IC50 on C-RAF (Table 2) amounted to 24.3 nM.

Compound `CN1CCN(Cc2ccc(NC(=O)c3cccc(C#Cc4cnc5cnccn45)c3)cc2Cl)CC1` registered a 50% inhibitory concentration (IC50) against C-RAF (Table 2) of 3.96 nM.

`Cc1ccc(C(=O)Nc2ccc(CC(=N)N)c(C(F)(F)F)c2)cc1C#Cc1cnc2cccnn12` came in with an IC50 against C-RAF (Table 2) of 3.91 nM.

In turn, `Cc1ccc(C(=O)Nc2ccc(C#N)c(C(F)(F)F)c2)cc1C#Cc1cnc2ccccn12` gave an IC50 at C-RAF (Table 2) of 57.3 nM.

As to `CNC(=O)CNc1ccc(NC(=O)c2ccc(C)c(C#Cc3cnc4ccccn34)c2)cc1C(F)(F)F`, the IC50 against C-RAF (Table 2) was 29.5 nM.

`Cc1cnc(NC(=O)c2ccc(C)c(C#Cc3cnc4c(NC(N)=O)cccn34)c2)s1` displayed an IC50 on C-RAF (Table 2) of 2.49 nM.

Turning to `O=C(Nc1cccc(C(F)(F)F)c1)c1cncc(C#Cc2cnc3cccnn23)c1`, the half-maximal inhibitory concentration (IC50) on C-RAF (Table 2) worked out at 2.07 nM.

At C-RAF (Table 2), `Cc1ccc(C(=O)Nc2cc(-n3ccnc3)cc(C(F)(F)F)c2)cc1C#Cc1cnc2c(N)cccn12` showed a half-maximal inhibitory concentration (IC50) of 51.1 nM.

In turn, `Cc1ccc(C(=O)Nc2cc(-n3ccnc3CN(C)C)cc(C(F)(F)F)c2)cc1C#Cc1cnc2cnccn12` registered an IC50 at C-RAF (Table 2) of 9.22 nM.

The compound `Cc1ccc(C(=O)Nc2ccc(CN3CCCC3)c(C(F)(F)F)c2)cc1C#Cc1cnc2ccccn12` returned a half-maximal inhibitory concentration (IC50) at C-RAF (Table 2) of 60.2 nM.

Compound `Cc1ccc(C(=O)Nc2cc(C(F)(F)F)ccn2)cc1C#Cc1cnc2c(N)cccn12` displayed a 50% inhibitory concentration (IC50) at C-RAF (Table 2) of 4.78 nM.

Compound `Cc1ccc(C(=O)Nc2cc(CN3CCOCC3)cc(C(F)(F)F)c2)cc1C#Cc1cnc2ccccn12` displayed an IC50 on C-RAF (Table 2) of 83.1 nM.

For the compound `CC(=O)Nc1cccn2c(C#Cc3cc(NC(=O)Nc4cc(C(F)(F)F)ccn4)ccc3C)cnc12`, it took 5.09 nM to reach half-maximal inhibition on C-RAF (Table 2) (IC50).

As to `Cc1ccc(C(=O)Nc2cc(C(C)(C)C)on2)cc1C#Cc1cnc2cccnn12`, at C-RAF (Table 2), the concentration for half-maximal inhibition (IC50) was found to be 4.27 nM.

Regarding `Cc1ccc(C(=O)Nc2cc(N3CCOCC3)cc(C(F)(F)F)c2)cc1C#Cc1cnc2cccnn12`, 17.2 nM corresponded to half-maximal inhibition against C-RAF (Table 2) (IC50).

Regarding `Cc1ccc(C(=O)Nc2cc(N(C)CCO)cc(C(F)(F)F)c2)cc1C#Cc1cnc2cccnn12`, it took 14.4 nM to reach half-maximal inhibition against C-RAF (Table 2) (IC50).

For `Cc1ccc(C(=O)Nc2cccc(C(F)(F)F)c2)cc1C#Cc1cnc2cccnn12`, the IC50 at C-RAF (Table 2) was determined as 1.45 nM.

At C-RAF (Table 2), `Cc1ccc(C(=O)Nc2ccc(Cl)cc2)cc1C#Cc1cnc2cccnn12` came in with an IC50 of 10.7 nM.

Regarding `Cc1ccc(C(=O)Nc2cc(-n3cnc(CN(C)C)c3)cc(C(F)(F)F)c2)cc1C#Cc1cnc2cccnn12`, the IC50 against C-RAF (Table 2) turned out to be 3.84 nM.

Consider `Cc1ccc(C(=O)Nc2cc(-c3cncnc3)cc(C(F)(F)F)c2)cc1C#Cc1cnc2cccnn12`, for which, on C-RAF (Table 2), the IC50 is 8.5 nM.

Take `Cc1ccc(-c2nc3cc(C(F)(F)F)ccc3[nH]2)cc1C#Cc1cnc2cccnn12`: at C-RAF (Table 2), the midpoint of inhibition, the IC50, lay at 5.8 nM.

Turning to `Cc1ccc(C(=O)Nc2cc(-n3cnc(CN4CCCC4)c3)cc(C(F)(F)F)c2)cc1C#Cc1cnc2cccnn12`, half-maximal inhibition against C-RAF (Table 2) (IC50) was put at 9.19 nM.

In turn, `Cc1ccc(C(=O)Nc2ccc(C(F)(F)F)cc2)cc1C#Cc1cnc2cccnn12` yielded an IC50 on C-RAF (Table 2) of 4.39 nM.

For `Cc1ccc(F)c(NC(=O)c2ccc(C)c(C#Cc3cnc4cccnn34)c2)c1`, the IC50 on C-RAF (Table 2) came out at 2.76 nM.

`Cc1cc(C#Cc2cnc3cccnn23)cc(C(=O)Nc2cccc(C(F)(F)F)c2)c1`: half-maximal inhibition against C-RAF (Table 2) (IC50) was put at 2940 nM.

In the case of `Cc1ccc(NC(=O)c2ccc3ccn(C)c3c2)cc1C#Cc1cnc2cccnn12`, half-maximal inhibition against C-RAF (Table 2) (IC50) was put at 3.12 nM.

In turn, `CN1CCN(Cc2ccc(NC(=O)c3cncc(C#Cc4cnc5cccnn45)c3)cc2Cl)CC1` showed a half-maximal inhibitory concentration (IC50) at C-RAF (Table 2) of 25.6 nM.

At C-RAF (Table 1), `Cc1ccc(C(=O)Nc2ccc(CN3CCN(C)CC3)c(C(F)(F)F)c2)cc1C#Cc1cnc2cnccn12` [Example 2, 3-(Imidazo[1,2-a]pyrazin-3-ylethynyl)-4-methyl-N-(4-((4-methylpiperazin-1-yl)methyl)-3-(trifluoromethyl)phenyl)benzamide] showed an IC50 of 2.13 nM.

Turning to `Cc1ccc(C(=O)Nc2ccc(CN3CCN(C)CC3)c(C(F)(F)F)c2)cc1C#Cc1cnc2ccccn12` [Example 8, 3-(Imidazo[1,2-a]pyridin-3-ylethynyl)-4-methyl-N-(4-((4-methylpiperazin-1-yl)methyl)-3-(trifluoromethyl)phenyl)benzamide], half-maximal inhibition against C-RAF (Table 1) (IC50) was put at 26 nM.

As for `CC(=O)Nc1cccn2c(C#Cc3cc(C(=O)Nc4cc(C(F)(F)F)ccn4)ccc3C)cnc12` [Example 10, 3-((8-Acetamidoimidazo[1,2-a]pyridin-3-yl)ethynyl)-4-methyl-N-(4-(trifluoromethyl)pyridin-2-yl)benzamide], half-maximal inhibition on C-RAF (Table 1) (IC50) required 2.42 nM.

Compound `Cc1ccc(NC(=O)c2ccc(CN3CCN(C)CC3)c(C(F)(F)F)c2)cc1C#Cc1cnc2cccnn12` [Example 15, N-(3-(Imidazo[1,2-b]pyridazin-3-ylethynyl)-4-methylphenyl)-4-((4-methylpiperazin-1-yl)methyl)-3-(trifluoromethyl)benzamide] displayed an IC50 against C-RAF (Table 1) of 12.2 nM.

On to `Cc1ccc(C(=O)Nc2ccc(CN3CCN(C)CC3)c(C(F)(F)F)c2)cc1C#Cc1cnc2cccnn12` [Ponatinib, 3-(Imidazo[1,2-b]pyridazin-3-ylethynyl)-4-methyl-N-(4-((4-methylpiperazin-1-yl)methyl)-3-(trifluoromethyl)phenyl)benzamide], for which the GI50 – broadly, the concentration giving 50% growth inhibition – in test [1] came to 372 nM; in test [2], 354 nM; in test [3], 85.6 nM; in test [4] it was 767 nM; in [5] it was 107 nM; in test [6] it was 88.5 nM. In addition, the “MEK or ERK1/2 phosphorylation” value in test [7], in [8] and in test [9] was “inhibit” each time.
